Source: PubChem BioAssay (NCI)
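These data come from cells grown in 96-well plates and exposed to compound for 48 hours at five concentrations. The concentration for 50% growth inhibition is given as GI50. TGI denotes the concentration required for complete inhibition of growth.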

Tests used:
Assay in all cases: NCI anticancer screen, dose series, 48 h
[1] = tested on: OVCAR-3 ovarian
[2] = tested on: UACC-62 melanoma
[3] = tested on: SNB-19 CNS
[4] = tested on: HT29 colon
[5] = tested on: SNB-75 CNS
[6] = tested on: SF-268 CNS
[7] = tested on: RXF 393 renal
[8] = tested on: BT-549 breast
[9] = tested on: OVCAR-4 ovarian
[10] = tested on: SN12C renal
[11] = tested on: ACHN renal
[12] = tested on: M14 melanoma
[13] = tested on: HCC-2998 colon
[14] = tested on: KM12 colon
[15] = tested on: NCI/ADR-RES ovarian
[16] = tested on: CAKI-1 renal
[17] = tested on: SF-295 CNS
[18] = tested on: IGROV1 ovarian
[19] = tested on: COLO 205 colon
[20] = tested on: U251 CNS
[21] = tested on: 786-0 renal
[22] = tested on: MDA-MB-435
[23] = tested on: A549 NSCLC
[24] = tested on: CCRF-CEM leukemia
[25] = tested on: TK-10 renal
[26] = tested on: HOP-62 NSCLC
[27] = tested on: DU-145 prostate
[28] = tested on: T-47D breast
[29] = tested on: SK-MEL-5 melanoma
[30] = tested on: SW-620 colon
[31] = tested on: OVCAR-5 ovarian
[32] = tested on: MOLT-4 leukemia
[33] = tested on: UACC-257 melanoma
[34] = tested on: SF-539 CNS
[35] = tested on: SR leukemia
[36] = tested on: HL-60(TB) leukemia
[37] = tested on: NCI-H522 lung
[38] = tested on: UO-31 renal
[39] = tested on: HOP-92 NSCLC
[40] = tested on: HCT-15 colon
[41] = tested on: SK-MEL-2 melanoma
[42] = tested on: RPMI-8226 leukemia
[43] = tested on: EKVX NSCLC
[44] = tested on: NCI-H226 lung
[45] = tested on: K-562 leukemia
[46] = tested on: SK-OV-3 ovarian
[47] = tested on: MDA-MB-231 breast
[48] = tested on: HCT-116 colon
[49] = tested on: SK-MEL-28 melanoma
[50] = tested on: NCI-H23 lung
[51] = tested on: A498 renal
[52] = tested on: HS 578T breast
[53] = tested on: NCI-H460 lung
[54] = tested on: MCF7 breast
[55] = tested on: PC-3 prostate
[56] = tested on: LOX IMVI melanoma

SMILES: CN(C)CCOc1nc2c3cccnc3cc(-c3cccc(Cl)c3)c2c2ncccc12
- GI50 [1]: 1.52 µM
- TGI [1]: 4.19 µM
- GI50 [2]: 2.15 µM
- TGI [2]: 4.91 µM
- GI50 [3]: 1.6 µM
- TGI [3]: 4.32 µM
- GI50 [4]: 1.01 µM
- TGI [4]: 2.27 µM
- GI50 [5]: 1.23 µM
- TGI [5]: 7.78 µM
- GI50 [6]: 1.17 µM
- TGI [6]: 4.37 µM
- GI50 [7]: 1.39 µM
- TGI [7]: 2.8 µM
- GI50 [8]: 6.11 µM
- TGI [8]: 19.9 µM
- GI50 [9]: 1.3 µM
- TGI [9]: 3.19 µM
- GI50 [10]: 1.51 µM
- TGI [10]: 7.03 µM
- GI50 [11]: 0.698 µM
- TGI [11]: 2.45 µM
- GI50 [12]: 1.76 µM
- TGI [12]: 3.48 µM
- GI50 [13]: 1.43 µM
- TGI [13]: 2.93 µM
- GI50 [14]: 1.39 µM
- TGI [14]: 3.03 µM
- GI50 [15]: 1.42 µM
- TGI [15]: 2.82 µM
- GI50 [16]: 1.1 µM
- TGI [16]: 2.92 µM
- GI50 [17]: 1.13 µM
- TGI [17]: 2.5 µM
- GI50 [18]: 0.905 µM
- TGI [18]: 3.2 µM
- GI50 [19]: 1.23 µM
- TGI [19]: 2.74 µM
- GI50 [20]: 1.56 µM
- TGI [20]: 3.03 µM
- GI50 [21]: 1.45 µM
- TGI [21]: 2.84 µM
- GI50 [22]: 1.5 µM
- TGI [22]: 2.93 µM
- GI50 [23]: 1.39 µM
- TGI [23]: 2.98 µM
- GI50 [24]: 1.26 µM
- TGI [24]: 6.73 µM
- GI50 [25]: 1.52 µM
- TGI [25]: 4.04 µM
- GI50 [26]: 1.43 µM
- TGI [26]: 3.26 µM
- GI50 [27]: 1.84 µM
- TGI [27]: 4.26 µM
- GI50 [28]: 2.16 µM
- TGI [28]: 6.39 µM
- GI50 [29]: 1.78 µM
- TGI [29]: 3.2 µM
- GI50 [30]: 0.684 µM
- TGI [30]: 2.19 µM
- GI50 [31]: 1.5 µM
- TGI [31]: 4.02 µM
- GI50 [32]: 0.488 µM
- TGI [32]: 2.41 µM
- GI50 [33]: 1.89 µM
- TGI [33]: 3.6 µM
- GI50 [34]: 1.65 µM
- TGI [34]: 3.08 µM
- GI50 [35]: 0.371 µM
- TGI [35]: 2.15 µM
- GI50 [36]: 2.08 µM
- TGI [36]: 4.5 µM
- GI50 [37]: 1.47 µM
- TGI [37]: 3.06 µM
- GI50 [38]: 1.09 µM
- TGI [38]: 2.73 µM
- GI50 [39]: 2.04 µM
- TGI [39]: 8.42 µM
- GI50 [40]: 1.05 µM
- TGI [40]: 2.7 µM
- GI50 [41]: 1.9 µM
- TGI [41]: 3.79 µM
- GI50 [42]: 2.34 µM
- TGI [42]: 6.24 µM
- GI50 [43]: 1.7 µM
- TGI [43]: 4.62 µM
- GI50 [44]: 6.09 µM
- TGI [44]: 24.6 µM
- GI50 [45]: 1.13 µM
- TGI [45]: 2.74 µM
- GI50 [46]: 5.05 µM
- TGI [46]: 18.4 µM
- GI50 [47]: 1.5 µM
- TGI [47]: 3.53 µM
- GI50 [48]: 1.06 µM
- TGI [48]: 2.32 µM
- GI50 [49]: 1.65 µM
- TGI [49]: 3.07 µM
- GI50 [50]: 1.51 µM
- TGI [50]: 3.34 µM
- GI50 [51]: 2.6 µM
- TGI [51]: 10.8 µM
- GI50 [52]: 1.97 µM
- TGI [52]: 5.06 µM
- GI50 [53]: 0.836 µM
- TGI [53]: 2.24 µM
- GI50 [54]: 1.28 µM
- TGI [54]: 2.68 µM
- GI50 [55]: 2.17 µM
- TGI [55]: 5.95 µM
- GI50 [56]: 0.968 µM
- TGI [56]: 4.5 µM
